Reference: PMC9196629, “Synthesis, Characterization and Antitumor Mechanism Investigation of Heterometallic Ru(Ⅱ)-Re(Ⅰ) Complexes” (Frontiers in Chemistry, 2022)

How the values were obtained:
[1] = tested on: HeLa (human cervical cancer cells); test: MTT cytotoxicity assay; assay type: cell-based; conditions: 48 h incubation, mean ± SD
Description: (§1) The anticancer activities of RuRe-1 and RuRe-2 against four cancer cell lines: HeLa (human cervical cancer cells), HepG2 (human hepatocellular carcinoma), A549 (human lung cancer cells), A549R (cisplatin-resistant A549) and one normal cell line LO2 (human normal liver cells) were determined by 3-(4,5-dimethylthiazole)-2,5-diphenyltetraazolium bromide (MTT) assay, while the mononuclear complexes Ru-1, Ru-2, Re-1 and cisplatin were selected as controls. […] And the in vitro antiproliferative efficacies of the compounds against HeLa cells were in the following order: RuRe-2 > RuRe-1 > Re-1 > cisplatin > Ru-1 > Ru-2. […] The anticancer activity of the mononuclear rhenium complex Re-1 was between 5.6 μM and 8.0 μM, which contributed the most to the antitumor activities of the heteronuclear Ru(II)-Re(Ⅰ) metal complexes.
(§2) Cell lines and culture conditions. HeLa, HepG2, A549, A549R and LO2 cells were purchased from Nanjing KeyGen Biotech., and cultured in DMEM or RPMI 1640 complete medium at 37 ℃ with 5% CO2 atmosphere.
(§3) In vitro cytotoxicity assay. The anti-tumor activity of mononuclear complexes Ru-1, Ru-2, Re-1 and heteronuclear RuRe-1 and RuRe-2 were determined by MTT (5 mg/mL) assay. Cells were placed in 96-well plates and cultured for 24 h at 37 ℃ in a 5% CO2 incubator. After replacing the culture medium with fresh medium containing RuRe-1 or RuRe-2 at the indicated concentration, cells were cultured for 48 h. 20 μL MTT was added to each well 4 h before the end of the incubation. Subsequently, the liquid in the cell wells was poured out and 150 μL/well DMSO was added to dissolve the MTT-formazan crystals. The absorbance of living cells at 570 nm was detected.

[2] = tested on: A549 (human lung cancer cells); test: MTT cytotoxicity assay; assay type: cell-based; conditions: 48 h incubation, mean ± SD
Description: as §1, §2, §3

[3] = tested on: LO2 (human normal liver cells); test: MTT cytotoxicity assay; assay type: cell-based; conditions: 48 h incubation, mean ± SD
Description: as §1, §2, §3

[4] = tested on: HepG2 (human hepatocellular carcinoma); test: MTT cytotoxicity assay; assay type: cell-based; conditions: 48 h incubation, mean ± SD
Description: as §1, §2, §3

[5] = tested on: A549R (cisplatin-resistant A549); test: MTT cytotoxicity assay; assay type: cell-based, human; conditions: MTT, 48 h incubation, mean ± SD
Description: as §1, §2, §3

[6] = tested on: HeLa, HepG2, A549, A549R cancer cell lines; test: MTT cytotoxicity assay, summary over the cell lines screened; assay type: cell-based, human; conditions: 48 h
Description: as §1
as §3, with “Subsequently, the liquid in the cell wells was poured out and 150 μL/well DMSO was added to dissolve the MTT-formazan crystals.” left out

Compound | IC50 [1] | IC50 [2] | IC50 [3] | IC50 [4] | IC50 [5] | antitumor activity against all cancer cell lines screened [6]
N.N.[Cl][Pt][Cl] [Cisplatin, reference compound] | 19.3 ± 0.5 µM | 25.9 ± 0.8 µM | 22.5 ± 2 µM | 23.5 ± 2 µM | 90.3 ± 0.3 µM | –
F[P-](F)(F)(F)(F)F.F[P-](F)(F)(F)(F)F.[Ru+2].c1ccc(-c2ccccn2)nc1.c1ccc(-c2ccccn2)nc1.c1cnc2c(c1)c1nc(-c3ccncc3)[nH]c1c1cccnc12 [Ru-1, reference compound] | 39.8 ± 0.6 µM | > 50 µM | > 50 µM | > 50 µM | > 50 µM | negligible antitumor activity
F[P-](F)(F)(F)(F)F.F[P-](F)(F)(F)(F)F.c1cc2ccc3ccc[n+]4c3c2[n+](c1)[Ru-4]412([n+]3cccc4ccc5ccc[n+]1c5c43)[n+]1cccc3c4nc(-c5ccncc5)[nH]c4c4ccc[n+]2c4c31 [Ru-2] | 43.6 ± 1.2 µM | > 50 µM | > 50 µM | > 50 µM | > 50 µM | negligible antitumor activity
